# Experimental data taken from patent US11530226B2, “Azepane inhibitors of menin-MLL interaction” (Janssen Pharmaceutica NV, priority 2016, dated 2022).
# Target: T1, terbium chelate-labeled menin / FITC-MBM1 peptide (Menin/MLL) (Homo sapiens, UniProt O00255, T541A)
# T1 construct: Menin (a. a. l-610-6×his tag) was labeled with terbium cryptate as follows
# T1 sequence (O00255 with tags, fused parts or gaps T541A): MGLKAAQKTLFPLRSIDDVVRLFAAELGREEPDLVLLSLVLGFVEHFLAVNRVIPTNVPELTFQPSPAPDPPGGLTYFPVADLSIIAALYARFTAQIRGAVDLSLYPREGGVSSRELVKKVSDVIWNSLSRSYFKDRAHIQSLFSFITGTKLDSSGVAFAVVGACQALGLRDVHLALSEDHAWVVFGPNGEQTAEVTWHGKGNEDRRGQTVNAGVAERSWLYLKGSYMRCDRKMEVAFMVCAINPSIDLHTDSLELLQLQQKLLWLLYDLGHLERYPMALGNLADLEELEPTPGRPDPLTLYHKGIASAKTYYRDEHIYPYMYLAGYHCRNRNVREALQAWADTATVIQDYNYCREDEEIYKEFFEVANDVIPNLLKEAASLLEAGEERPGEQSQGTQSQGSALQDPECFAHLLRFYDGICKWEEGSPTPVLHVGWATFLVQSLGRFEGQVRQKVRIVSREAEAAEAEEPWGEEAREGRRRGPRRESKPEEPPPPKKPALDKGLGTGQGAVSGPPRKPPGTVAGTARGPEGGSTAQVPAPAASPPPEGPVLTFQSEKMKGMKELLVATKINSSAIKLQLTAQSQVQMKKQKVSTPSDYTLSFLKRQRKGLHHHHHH
# Assay: Menin/MLL homogenous time-resolved fluorescence (HTRF) assay
# Type: binding
# Conditions: read-out: (2) Menin HTRF assay (IC50 (nM))
# Method: 2) Menin/MLL Homogenous Time-Resolved Fluorescence (HTRF) Assay
# To an untreated, white 384-well microtiter plate was added 40 nL 200× test compound in DMSO and 4 μL 2× terbium chelate-labeled menin (vide infra for preparation) in assay buffer (40 mM Tris .HCl, pH 7.5, 50 mM NaCl, 1 mM DTT and 0.05% Pluronic F-127). After incubation of test compound and terbium chelate-labeled menin for 5 min at ambient temperature, 4 μL 2×FITC-MBM1 peptide (FITC-P-alanine-SARWRFPARPGT-NH2) in assay buffer was added, the microtiter plate centrifuged at 1000 rpm for 1 min and the assay mixtures incubated for 15 min at ambient temperature. The relative amount of menin ⋅FITC-MBM1 complex present in an assay mixture is determined by measuring the homogenous time-resolved fluorescence (HTRF) of the terbium/FITC donor/acceptor fluorphore pair using a BMG Pherastar plate reader (ex. 337 nm/terbium cm. 490 nm/FITC cm. 520 nm) at ambient temperature. The degree of fluorescence resonance energy transfer (the HTRF value) is expressed as the ratio of the fluorescence emission intensities of the FITC and terbium fluorophores (P^m 520 nm//F^em 490 nm). The final concentrations of reagents in the binding assay are 100 pM terbium chelate-labeled menin, 75 nM FITC-MBM1 peptide and 0.5%) DMSO in assay buffer. Dose-response titrations of test compounds are conducted using an 11 point, three-fold serial dilution scheme, starting typically at 25 μM.
# Compound potencies were determined by first calculating % inhibition at each compound concentration according to equation 1: % inhibition=((HC−LC)−(HTRF^compound−LC))/(HC−LC))*100 (Eqn 1)
# Where LC and HC are the HTRF values of the assay in the presence or absence of a saturating concentration of a compound that competes with FITC-MBM1 for binding to menin, and HTRF^compound is the measured HTRF value in the presence of the test compound. HC and LC HTRF values represent an average of at least 16 replicates per plate.
# Where Bottom and Top are the lower and upper asymptotes of the dose-response curve, respectively, IC50 is the concentration of compound that yields 50% inhibition of signal and h is the Hill coefficient.
# Preparation of Terbium cryptate labeling of Menin: Menin (a. a. l-610-6×his tag) was labeled with terbium cryptate as follows. 2 mg of Menin was buffer exchanged into 1× phosphate buffered saline. 16 uM Menin was incubated with 4-fold molar excess NHS-terbium cryptate (Cisbio Bioassays, Bedford, Mass.) for 2 hours at room temperature. The labeled protein was purified away from free label by running the reaction over a Superdex 200 Increase 10/300 GL column at 0.75 ml/min. Peak fractions were collected, aliquoted and frozen at −80° C.
row,SMILES,IC50 [nM]
1,Fc1ccc(CNC2CCCN(c3ncnc4sc(CC(F)(F)F)cc34)CC2)c(F)c1 (stereo not shown) [Compound 7],55
2,Cn1cc(CNC2CCCN(c3ncnc4sc(CC(F)(F)F)cc34)CC2)cn1 (racemic) [Compound 11],69
3,Cc1ccccc1CNC1CCCN(c2ncnc3sc(CC(F)(F)F)cc23)CC1 (stereo not shown) [Compound 19],41
4,"CC(C)CN(Cc1cnn(C)c1)[C@@H]1CCCN(c2ncnc3sc(CC(F)(F)F)cc23)CC1 (single isomer, unassigned) [Compound 58A]",1550
5,"C[C@@H](N[C@@H]1CCCN(c2ncnc3sc(CC(F)(F)F)cc23)CC1)c1cnn(C)c1 (single isomer, unassigned) [Compound 54A]",11900
6,OCCN(Cc1ccccc1)C1CCCN(c2ncnc3sc(CC(F)(F)F)cc23)CC1 (stereo not shown) [Compound 50],185
7,Cn1ncc2c1CCC[C@H]2N[C@H]1CCCN(c2ncnc3sc(CC(F)(F)F)cc23)CC1 [Compound 65C],686
8,"FC(F)(F)Cc1cc2c(N3CCC[C@H](N(Cc4ccccc4)C4COC4)CC3)ncnc2s1 (single isomer, unassigned) [Compound 59B]",1150
9,CC(C)[C@@H](CO)N[C@@H]1CCCN(c2ncnc3sc(CC(F)(F)F)cc23)CC1 [Compound 14A],4470
10,CN(C)CCCNC1CCCN(c2ncnc3sc(CC(F)(F)F)cc23)CC1 (stereo not shown) [Compound 56],724
11,"FC(F)(F)Cc1cc2c(N3CCC[C@@H](NCc4cn[nH]c4)CC3)ncnc2s1 (single isomer, unassigned) [Compound 26]",27
12,"CC(C)N[C@@H]1CCCN(c2ncnc3sc(CC(F)(F)F)cc23)CC1 (single isomer, unassigned) [Compound 13A]",5270
13,O=C(NC1CCCN(c2ncnc3sc(CC(F)(F)F)cc23)CC1)[C@H]1CC2(CC2)CN1 (stereo partly shown) [Compound 10A],1530
14,"Cc1ccc(CN[C@@H]2CCCN(c3ncnc4sc(CC(F)(F)F)cc34)CC2)c(C)c1 (single isomer, unassigned) [Compound 9A]",548
15,"Cn1cc(CNC2CCCN(c3ncnc4sc(CC(F)(F)F)cc34)CC2)cn1 (single isomer, unassigned) [Compound 11B]",1470
16,"C[C@@H]1CCN(c2ncnc3sc(CC(F)(F)F)cc23)CC[C@@H]1NCc1ccccc1 (single isomer, unassigned) [Compound 68B]",522
17,CNCCN(Cc1cnn(C)c1)C1CCCN(c2ncnc3sc(CC(F)(F)F)cc23)CC1 (stereo not shown) [Compound 39],852
18,CNC(=O)[C@@H](NC1CCCN(c2ncnc3sc(CC(F)(F)F)cc23)CC1)C(C)C (stereo partly shown) [Compound 52],20800

row,SMILES,IC50 [nM]
1,"Cn1cc2c(n1)CCC[C@H]2N[C@H]1CCCN(c2ncnc3sc(CC(F)(F)F)cc23)CC1 (single isomer, unassigned) [Compound 66C]",5380
2,"CC(C)[C@@H](N[C@@H]1CCCN(c2ncnc3sc(CC(F)(F)F)cc23)CC1)C1CNC1 (single isomer, unassigned) [Compound 35]",1010
3,"Cn1ncc2c1CCC[C@H]2N[C@@H]1CCCN(c2ncnc3sc(CC(F)(F)F)cc23)CC1 (single isomer, unassigned) [Compound 65A]",3500
4,"Cn1cc2c(n1)CCC[C@H]2N[C@@H]1CCCN(c2ncnc3sc(CC(F)(F)F)cc23)CC1 (single isomer, unassigned) [Compound 66A]",7440
5,FC(F)(F)Cc1cc2c(N3CCCC(NCc4ccncn4)CC3)ncnc2s1 (stereo not shown) [Compound 69],598
6,"CC(C)CN(Cc1cnn(C)c1)[C@H]1CCCN(c2ncnc3sc(CC(F)(F)F)cc23)CC1 (single isomer, unassigned) [Compound 58B]",888
7,"C[C@H](N[C@H]1CCCN(c2ncnc3sc(CC(F)(F)F)cc23)CC1)c1cnn(C)c1 (single isomer, unassigned) [Compound 54C]",1490
8,"Cn1cc2c(n1)CCC[C@@H]2N[C@H]1CCCN(c2ncnc3sc(CC(F)(F)F)cc23)CC1 (single isomer, unassigned) [Compound 66D]",880
9,"CC(C)NC1CCCN(c2ncnc3sc(CC(F)(F)F)cc23)CC1 (single isomer, unassigned) [Compound 13B]",2460
10,Cn1ncc2c1CCC[C@@H]2N[C@H]1CCCN(c2ncnc3sc(CC(F)(F)F)cc23)CC1 [Compound 65D],8690
11,FC(F)(F)Cc1cc2c(N3CCCC(NCC4CCOCC4)CC3)ncnc2s1 (stereo not shown) [Compound 55],227
12,"CC(C)[C@H](N[C@H]1CCCN(c2ncnc3sc(CC(F)(F)F)cc23)CC1)C1CNC1 (single isomer, unassigned) [Compound 32]",758
13,CN(C)CCCN(Cc1cnn(C)c1)C1CCCN(c2ncnc3sc(CC(F)(F)F)cc23)CC1 (stereo not shown) [Compound 63],369
14,CN(C)CCCCN(Cc1cnn(C)c1)C1CCCN(c2ncnc3sc(CC(F)(F)F)cc23)CC1 (stereo not shown) [Compound 61],181
15,"FC(F)(F)Cc1cc2c(N3CCC[C@@H](N(Cc4ccccc4)C4COC4)CC3)ncnc2s1 (single isomer, unassigned) [Compound 59A]",709
16,"C[C@H](N[C@@H]1CCCN(c2ncnc3sc(CC(F)(F)F)cc23)CC1)c1cnn(C)c1 (single isomer, unassigned) [Compound 54B]",13200
17,"C[C@@H](N[C@H]1CCCN(c2ncnc3sc(CC(F)(F)F)cc23)CC1)c1cnn(C)c1 (single isomer, unassigned) [Compound 54D]",6760
18,CC(C)[C@@H](CO)N[C@H]1CCCN(c2ncnc3sc(CC(F)(F)F)cc23)CC1 [Compound 14B],767

# Test system: MV-4-1 1 cells (MLL-AF4)
# Assay: Proliferation assay (spheroid-like growth, 8 d, live-cell imaging), MV-4-11
# Type: cell-based, human
# Conditions: Homo sapiens, MV4-11, 192 h, MV-4-11 cells, absolute IC50 from AUC of confluence, read-out: (3) Spheroid assay MV-4-11 (IC50 (μM))
# Method: The anti-proliferative effect of menin/MLL protein/protein interaction inhibitor test compounds was assessed in human leukemia cell lines. The cell lines MV-4-1 1 and MOLM14 harbor MEL translocations and express the MEL fusion proteins MLL-AF4 and MLL-AF9, respectively, as well as the wildtype protein from the second allele. […] K562 was used as a control cell line containing two MLL wildtype alleles in order to exclude compounds that display general cytotoxic effects.
# MV-4-1 1 and MOLM14 were cultured in RPMI-1640 (Sigma Aldrich) supplemented with 10% fetal bovine serum (HyClone), 2 mM L-glutamine (Sigma Aldrich) and 50 μg/ml gentamycin (Gibco). K562 were propagated in RPMI-1640 (Sigma Aldrich) supplemented with 20% fetal bovine serum (HyClone), 2 mM L-glutamine (Sigma Aldrich) and 50 μg/ml gentamycin (Gibco).
# In order to assess the anti-proliferative effects, 1,500 MV-4-1 1, 300 MOLM14 or 750 K562 cells were seeded in 200 μl media per well in 96-well round bottom, ultra-low attachment plates (Costar, catalogue number 7007). Cell seeding numbers were chosen based on growth curves to ensure linear growth throughout the experiment. Test compounds were added at different concentrations and the DMSO content was normalized to 0.3%>. Cells were incubated for 8d at 37° C. and 5% C02. Spheroid like growth was monitored in real-time by live-cell imaging (IncuCyteZOOM, Essenbio, 4× objective) acquiring one image every four hours for 8d. Confluence (%) as a measure of spheroid size was determined using an integrated analysis tool.
# In order to determine the cumulative effect of the test compounds over time, the area under the curve (AUC) in a plot of confluence against time was calculated. Confluence at the beginning of the experiment (t=0) was used as baseline for the AUC calculation.
# Absolute IC50 values were calculated according to the following procedure: % Control=(AUC sample/AUC control)*100 AUC control=mean AUC of control values(cells without compound/DMSO as vehicle control)
# A non-linear curve fit was applied using the least squares (ordinary) fit method to the plot of % control versus compound concentration. Based on this, the absolute IC50 value (half maximal inhibitory concentration of the test compound causing an anti-proliferative effect of 50% relative to the vehicle control) was calculated.
row,SMILES,IC50 [µM]
1,Fc1ccc(CNC2CCCN(c3ncnc4sc(CC(F)(F)F)cc34)CC2)c(F)c1 (stereo not shown) [Compound 7],1.6
2,Cn1cc(CNC2CCCN(c3ncnc4sc(CC(F)(F)F)cc34)CC2)cn1 (racemic) [Compound 11],2
3,Cc1ccccc1CNC1CCCN(c2ncnc3sc(CC(F)(F)F)cc23)CC1 (stereo not shown) [Compound 19],2
4,OCCN(Cc1ccccc1)C1CCCN(c2ncnc3sc(CC(F)(F)F)cc23)CC1 (stereo not shown) [Compound 50],2.3
